Source: patent US11180462B2, “Microbiocidal oxadiazole derivatives” (SYNGENTA PARTICIPATIONS AG, priority 2015, dated 2021)

Columns and labels:
[1] = system: Puccinia recondita f. Sp. Tritici; assay: Fungicidal activity against Puccinia recondita f. sp. tritici / wheat / leaf disc curative (brown rust); format: in vivo; conditions: foliar, 24 h, 200 ppm in the applied formulation, wheat leaf segments, curative (applied 1 day after inoculation), compared to untreated control leaf disks, read-out: disease control
In short: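 Segments of wheat cv. Kanzler were laid on agar and inoculated with a spore suspension of the rust, then held in darkness at 19° C and 75% relative humidity. One day later the water-diluted formulated compound was applied, with incubation continued under a 12 h light/dark cycle.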

[2] = system: Puccinia recondita f. Sp. Tritici; assay: Fungicidal activity against Puccinia recondita f. sp. tritici / wheat / leaf disc preventative (brown rust); format: in vivo; conditions: foliar, 200 ppm in the applied formulation, wheat leaf segments, preventative, compared to untreated control leaf disks, read-out: disease control
In short: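 Compound application precedes infection: segments of wheat cv. Kanzler, sprayed at 200 ppm, are inoculated with a spore suspension after 1 day. Incubation is at 19° C. with 75% relative humidity and 12 h light/12 h darkness, and control versus untreated leaves is rated 7 to 9 days post-application.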

Phakopsora Pachyrhizi = assay: Fungicidal activity against Phakopsora pachyrhizi / soybean / leaf disc preventative (Asian soybean rust); format: in vivo; conditions: foliar, 200 ppm in the applied formulation, soybean leaf disks, compared to untreated control leaf disks, read-out: disease control
In short: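 Preventative soybean leaf-disc test: discs on water agar sprayed with diluted formulated compound, inoculated one day later with spores on the lower surface. Held 24–36 h dark at 20°C, 75% rh, then 12 h light/day; percent disease control versus untreated discs scored 12–14 days after application.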

[3] = system: Glomerella lagenarium (Colletotrichum lagenarium); assay: Fungicidal activity against Glomerella lagenarium (Colletotrichum lagenarium) liquid culture / cucumber / preventative (anthracnose); format: cell-based; conditions: Colletotrichum orbiculare; 20 ppm in the applied formulation; liquid culture (PDB), growth inhibition measured photometrically after 3 to 4 days; compared to untreated control; read-out: disease control
In short: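 Photometric read-out of fungal growth after 2–7 days, expressed as percent antifungal activity versus untreated check. Cryo-stored conidia in PDB; compound at 20 ppm; dark, 24 °C, 96% RH.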

CON(Cc1ccc(-c2noc(C(F)(F)F)n2)cc1)C(C)=O [Compound 1.1, N-methoxy-N-[[4-[5-(trifluoromethyl)-1,2,4-Oxadiazol-3-yl]Phenyl]Methyl]-Acetamide]
≥ 80%: pest or weed control at 200 ppm [1] | pest or weed control at 200 ppm [2] | pest or weed control at 200 ppm (Phakopsora Pachyrhizi) | inhibition of growth at 20 ppm [3]

CON(Cc1ccc(-c2noc(C(F)(F)F)n2)cc1)C(=O)C1CC1 [Compound 1.2, N-methoxy-N-[[4-[5-(trifluoromethyl)-1,2,4-oxadiazol-3-yl]phenyl]methyl]-cyclopropane-carboxamide]
≥ 80%: pest or weed control at 200 ppm [1] | pest or weed control at 200 ppm [2] | pest or weed control at 200 ppm (Phakopsora Pachyrhizi) | inhibition of growth at 20 ppm [3]

C#CCN(Cc1ccc(-c2noc(C(F)(F)F)n2)cc1)C(=O)C1CSC1 [Compound 1.172, N-prop-2-ynyl-N-[[4-[5-(trifluoromethyl)-1,2,4-oxadiazol-3-yl]phenyl]methyl]-thietane-3-carboxamide]
≥ 80%: pest or weed control at 200 ppm [1] | pest or weed control at 200 ppm [2] | pest or weed control at 200 ppm (Phakopsora Pachyrhizi)

C#CCN(Cc1ccc(-c2noc(C(F)(F)F)n2)cc1)C(=O)C(C)OC (centres unmarked) [Compound 1.200, 2-methoxy-N-prop-2-ynyl-N-[[4-[5-(trifluoromethyl)-1,2,4-oxadiazol-3-yl]phenyl]methyl]-propanamide]
≥ 80%: pest or weed control at 200 ppm [1] | pest or weed control at 200 ppm [2] | pest or weed control at 200 ppm (Phakopsora Pachyrhizi)

CCOCC(=O)N(Cc1ccc(-c2noc(C(F)(F)F)n2)cc1)C(C)CC (centres unmarked) [Compound 1.383, 2-ethoxy-N-sec-butyl-N-[[4-[5-(trifluoromethyl)-1,2,4-oxadiazol-3-yl]phenyl]methyl]-acetamide]
≥ 80%: pest or weed control at 200 ppm [1] | pest or weed control at 200 ppm [2] | pest or weed control at 200 ppm (Phakopsora Pachyrhizi)

CCC(=O)N(Cc1ccc(-c2noc(C(F)(F)F)n2)cc1F)OC [Compound 1.568, N-[[2-fluoro-4-[5-(trifluoromethyl)-1,2,4-oxadiazol-3-yl]phenyl]methyl]-N-methoxy-propanamide]
≥ 80%: pest or weed control at 200 ppm [1] | pest or weed control at 200 ppm (Phakopsora Pachyrhizi) | inhibition of growth at 20 ppm [3]

CCC(=O)N(Cc1ccc(-c2noc(C(F)(F)F)n2)cn1)OC [Compound 1.571, N-methoxy-N-[[5-[5-(trifluoromethyl)-1,2,4-oxadiazol-3-yl]-2-pyridyl]methyl]-propanamide]
≥ 80%: pest or weed control at 200 ppm [1] | pest or weed control at 200 ppm (Phakopsora Pachyrhizi) | inhibition of growth at 20 ppm [3]

O=C(C1CC1)N(Cc1ccc(-c2noc(C(F)(F)F)n2)cc1)CC(F)(F)F [Compound 1.586, N-(2,2,2-trifluoroethyl)-N-[[4-[5-(trifluoromethyl)-1,2,4-oxadiazol-3-yl]phenyl]methyl]-cyclopropane-carboxamide]
≥ 80%: pest or weed control at 200 ppm [1] | pest or weed control at 200 ppm (Phakopsora Pachyrhizi) | inhibition of growth at 20 ppm [3]

CCCCON(Cc1ccc(-c2noc(C(F)(F)F)n2)cc1)C(=O)C(C)CC (centres unmarked) [Compound 1.640, N-butoxy-2-methyl-N-[[4-[5-(trifluoromethyl)-1,2,4-oxadiazol-3-yl]phenyl]methyl]-butanamide]
≥ 80%: pest or weed control at 200 ppm [1] | pest or weed control at 200 ppm [2] | pest or weed control at 200 ppm (Phakopsora Pachyrhizi)

CCCN(Cc1ccc(-c2noc(C(F)(F)F)n2)cc1)C(=O)CC(F)(F)F [Compound 1.667, 3,3,3-trifluoroN-propyl-N-[[4-[5-(trifluoromethyl)-1,2,4-oxadiazol-3-yl]phenyl]methyl]-propanamide]
≥ 80%: pest or weed control at 200 ppm [1] | pest or weed control at 200 ppm (Phakopsora Pachyrhizi) | inhibition of growth at 20 ppm [3]

COCCC(=O)N(Cc1ccc(-c2noc(C(F)(F)F)n2)cc1)CC(F)(F)F [Compound 1.693, 3-methoxy-N-(2,2,2-trifluoroethyl)-N-[[4-[5-(trifluoromethyl)-1,2,4-oxadiazol-3-yl]phenyl]methyl]-propanamide]
≥ 80%: pest or weed control at 200 ppm [1] | pest or weed control at 200 ppm (Phakopsora Pachyrhizi) | inhibition of growth at 20 ppm [3]

O=C(C1CCOC1)N(CCO)Cc1ccc(-c2noc(C(F)(F)F)n2)cc1 (centres unmarked) [Compound 1.711, N-(2-hydroxyethyl)-N-[[4-[5-(trifluoromethyl)-1,2,4-oxadiazol-3-yl]phenyl]methyl]-tetrahydrofuran-3-carboxamide]
≥ 80%: pest or weed control at 200 ppm [1] | pest or weed control at 200 ppm [2] | pest or weed control at 200 ppm (Phakopsora Pachyrhizi)

O=C(OCCN(Cc1ccc(-c2noc(C(F)(F)F)n2)cc1)C(=O)C1CCOC1)C1CCOC1 (centres unmarked) [Compound 1.712, 2-(tetrahydrofuran-3-carbonyl-[[4-[5-(trifluoromethyl)-1,2,4-oxadiazol-3-yl]phenyl]methyl]-amino]ethyl tetrahydrofuran-3-carboxylate]
≥ 80%: pest or weed control at 200 ppm [1] | pest or weed control at 200 ppm [2] | pest or weed control at 200 ppm (Phakopsora Pachyrhizi)

CC1(C(=O)N(CCO)Cc2ccc(-c3noc(C(F)(F)F)n3)cc2)COC1 [Compound 1.721, N-(2-hydroxyethyl)-3-methyl-N-[[4-[5-(trifluoromethyl)-1,2,4-oxadiazol-3-yl]phenyl]methyl]-oxetane-3-carboxamide]
≥ 80%: pest or weed control at 200 ppm [1] | pest or weed control at 200 ppm [2] | pest or weed control at 200 ppm (Phakopsora Pachyrhizi)

CC1(C(=O)OCCN(Cc2ccc(-c3noc(C(F)(F)F)n3)cc2)C(=O)C2(C)COC2)COC1 [Compound 1.722, 2-[(3-methyloxetane-3-carbonyl)-[[4-[5-(trifluoromethyl)-1,2,4-oxadiazol-3-yl]phenyl]methyl]-amino]ethyl 3-methyloxetane-3-carboxylate]
≥ 80%: pest or weed control at 200 ppm [1] | pest or weed control at 200 ppm [2] | pest or weed control at 200 ppm (Phakopsora Pachyrhizi)

COC(C)C(=O)N(CCO)Cc1ccc(-c2noc(C(F)(F)F)n2)cc1 (centres unmarked) [Compound 1.731, N-(2-hydroxyethyl)-2-methoxy-N-[[4-[5-(trifluoromethyl)-1,2,4-oxadiazol-3-yl]phenyl]methyl]-propanamide]
≥ 80%: pest or weed control at 200 ppm [1] | pest or weed control at 200 ppm [2] | pest or weed control at 200 ppm (Phakopsora Pachyrhizi)

COC(C)C(=O)OCCN(Cc1ccc(-c2noc(C(F)(F)F)n2)cc1)C(=O)C(C)OC (centres unmarked) [Compound 1.732, 2-[2-methoxypropanoyl-[[4-[5-(trifluoromethyl)-1,2,4-oxadiazol-3-yl]phenyl]methyl]-amino]ethyl 2-methoxypropanoate]
≥ 80%: pest or weed control at 200 ppm [1] | pest or weed control at 200 ppm [2] | pest or weed control at 200 ppm (Phakopsora Pachyrhizi)

CC1(C(=O)N(Cc2ccc(-c3noc(C(F)(F)F)n3)cc2)C2COC2)COC1 [Compound 1.744, 3-methyl-N-(oxetan-3-yl)-N-[[4-[5-(trifluoromethyl)-1,2,4-oxadiazol-3-yl]phenyl]methyl]-oxetane-3-carboxamide]
≥ 80%: pest or weed control at 200 ppm [1] | pest or weed control at 200 ppm [2] | pest or weed control at 200 ppm (Phakopsora Pachyrhizi)

O=C(C1CCCO1)N(Cc1ccc(-c2noc(C(F)(F)F)n2)cc1)C1COC1 (centres unmarked) [Compound 1.747, N-(oxetan-3-yl)-N-[[4-[5-(trifluoromethyl)-1,2,4-oxadiazol-3-yl]phenyl]methyl]-tetrahydrofuran-2-carboxamide]
≥ 80%: pest or weed control at 200 ppm [1] | pest or weed control at 200 ppm [2] | pest or weed control at 200 ppm (Phakopsora Pachyrhizi)

N#CCC(=O)N(Cc1ccc(-c2noc(C(F)(F)F)n2)cc1)C1COC1 [Compound 1.748, 2-cyano-N-(oxetan-3-yl)-N-[[4-[5-(trifluoromethyl)-1,2,4-oxadiazol-3-yl]phenyl]methyl]-acetamide]
≥ 80%: pest or weed control at 200 ppm [1] | pest or weed control at 200 ppm [2] | pest or weed control at 200 ppm (Phakopsora Pachyrhizi)

CC1(C(=O)ON(Cc2ccc(-c3noc(C(F)(F)F)n3)cc2)C(=O)C2(C)COC2)COC1 [Compound 1.767, [(3-methyloxetane-3-carbonyl)-[[4-[5-(trifluoromethyl)-1,2,4-oxadiazol-3-yl]phenyl]methyl]-amino] 3-methyloxelane-3-carboxylate]
≥ 80%: pest or weed control at 200 ppm [1] | pest or weed control at 200 ppm [2] | pest or weed control at 200 ppm (Phakopsora Pachyrhizi)

COCCOC(=O)N(Cc1ccc(-c2noc(C(F)(F)F)n2)cc1)OC [Compound 2.2, 2-methoxyethyl N-methoxy-N-[[4-[5-(trifluoromethyl)-1,2,4-oxadiazol-3-yl]phenyl]methyl]-carbamate]
≥ 80%: pest or weed control at 200 ppm [1] | pest or weed control at 200 ppm (Phakopsora Pachyrhizi) | inhibition of growth at 20 ppm [3]

COC(=O)N(Cc1ccc(-c2noc(C(F)(F)F)n2)cc1)OC [Compound 2.3, methyl N-methoxy-N-[[4-[5-(trifluoromethyl)-1,2,4-oxadiazol-3-yl]phenyl]methyl]carbamate]
≥ 80%: pest or weed control at 200 ppm [1] | pest or weed control at 200 ppm (Phakopsora Pachyrhizi) | inhibition of growth at 20 ppm [3]

CON(Cc1ccc(-c2noc(C(F)(F)F)n2)cc1)C(=O)N1CCOCC1 [Compound 3.1, N-methoxy-N-[[4-[5-(trifluoromethyl)-1,2,4-oxadiazol-3-yl]phenyl]methyl]-morpholine-4-carboxamide]
≥ 80%: pest or weed control at 200 ppm [1] | pest or weed control at 200 ppm (Phakopsora Pachyrhizi) | inhibition of growth at 20 ppm [3]
